For data set [1], the system named is Herpes Simplex type 1 virus (HFEM strain). Description: plaque reduction assay in Vero cells infected with Herpes Simplex type 1 virus. The class given is cell-based. The method, then: (§1) Vero (African Green Monkey Kidney) cells were grown to confluence in 24 well multidishes, each well being 1.6 cm in diameter. The cells were infected with Herpes Simplex type 1 virus (HFEM strain) and overlaid with 0.5 mL of 0.9% agarose (w/v) in maintenance medium in concentrations ranging from 100 to 0.03 µg/ml in half-log dilution steps, were added in 0.5 mL volume. The virus infected cultures were then incubated at 37 °C for 4 days before fixing in 4% formaldehyde solution and staining with carbolfuchsin.

A short description of data set [2]: cytotoxicity (minimum toxic concentration) in the infected Vero cell cultures. The following applies: monkey; minimum concentration of test compound which caused cytotoxicity; Vero cells, highest concentration tested 100 µg/ml; read-out: MTD. The class given is cell-based, African Green Monkey. The method, then:
as §1

[3] abbreviates: Human alphaherpesvirus 1, 96 h, concentration causing 50% reduction in number of virus plaques, Vero cells, HSV-1 HFEM strain, 4 days at 37 C, read-out: PDD50 (the source's name).
The mark [4] stands for this setting: Human alphaherpesvirus 1, 96 h, same PD50 expressed in µM, Vero cells, HSV-1 HFEM strain, 4 days at 37 C, read-out: PDD50 (the source's name).
[5] abbreviates: Human alphaherpesvirus 1, Vero, 96 h, read-out: PDD50.

This note sets out measurements from patent publication EP0097039A1, “5-(E-2-halovinyl)-2'-deoxyuridine derivatives, processes for their preparation, pharmaceutical compositions containing them, and their use in treating viral infections” (BEECHAM GROUP PLC, priority 1982, dated 1983).

Where “and” joins values, the source holds several entries; their conditions need not be identical. Equal values may be shown once. Read-outs that look alike come from different tables or passages of the source.

With `O=C(CCl)OC[C@H]1O[C@@H](n2cc(/C=C/Br)c(=O)[nH]c2=O)C[C@@H]1OC(=O)CCl` [Example 1, E-5-(2-Bromovinyl)-3',5'-bis (chloroacetyl)-2'-deoxyuridine], the results for the EC50 in data set [1] (setting [3]) and in data set [1] (setting [4]) were 0.14 µg/mL and 0.29 µM, respectively. Also, the MCC at 96 h in data set [2] is more than 100 µg/mL.
With `O=C(CCl)OC[C@H]1O[C@@H](n2cc(/C=C/Br)c(=O)[nH]c2=O)C[C@@H]1O` [Example 2, E-5-(2-Bromovinyl)-5'-chloroacetyl-2'-deoxyuridine], the figures for the EC50 in data set [1] (setting [3]) and in data set [1] (setting [4]) were 0.12 µg/mL and 0.29 µM, respectively. In addition, in data set [2], the MCC at 96 h is more than 100 µg/mL.
The matching figures for `CC(Cl)C(=O)OC[C@H]1O[C@@H](n2cc(/C=C/Br)c(=O)[nH]c2=O)C[C@@H]1OC(=O)C(C)Cl` (stereo partly drawn) [Example 4]: 0.14 µg/mL, 0.27 µM and more than 100 µg/mL.
For `CC(Cl)C(=O)OC[C@H]1O[C@@H](n2cc(/C=C/Br)c(=O)[nH]c2=O)C[C@@H]1O` (stereo partly drawn) [Example 5], in that order: 0.14 µg/mL, 0.33 µM and more than 100 µg/mL.
Turning to `CCCN(CCC)S(=O)(=O)c1ccc(C(=O)OCC(=O)OC[C@H]2O[C@@H](n3cc(/C=C/Br)c(=O)[nH]c3=O)C[C@@H]2OC(=O)COC(=O)c2ccc(S(=O)(=O)N(CCC)CCC)cc2)cc1` [Example 6, E-5-(2-Bromovinyl)-3',5'-Bis (4-dipropylsulphamoylbenzoyloxyacetyl)-2'-deoxyuridine], the results for the EC50 in data set [1] (setting [3]) and in data set [1] (setting [4]) were 2.03 µg/mL and 2.06 µM, respectively. Also, the MCC at 96 h in data set [2] is more than 100 µg/mL.
The matching figures for `CCCN(CCC)S(=O)(=O)c1ccc(C(=O)OCC(=O)OC[C@H]2O[C@@H](n3cc(/C=C/Br)c(=O)[nH]c3=O)C[C@@H]2O)cc1` [Example 7, E-5-(2 Bromovinyl)-5'-(4-dipropylsulphamoylbenzoyloxyacetyl)-2'-deoxyuridine]: 0.24 µg/mL, 0.37 µM and more than 100 µg/mL.
The matching figures for `CCCN(CCC)S(=O)(=O)c1ccc(C(=O)OCC(=O)O[C@H]2C[C@H](n3cc(/C=C/Br)c(=O)[nH]c3=O)O[C@@H]2CO)cc1` [Example 8, E-5-(2-Bromovinyl)-3'-(4-dipropylsulphanoylbenzoyloxyacetyl)-2'-deoxyuridine]: 0.22 µg/mL, 0.33 µM and more than 100 µg/mL.
For `CC(C)(Oc1ccc(Cl)cc1)C(=O)OCC(=O)OC[C@H]1O[C@@H](n2cc(/C=C/Br)c(=O)[nH]c2=O)C[C@@H]1OC(=O)COC(=O)C(C)(C)Oc1ccc(Cl)cc1` [Example 9, E-5-(2 Bromovinyl)-3',5'-bis(2-(4-chlorophenoxy)-2-methylpropionyloxy-acetyl]-2'-deoxyuridine], in that order: 1.47 µg/mL, 1.75 µM and more than 100 µg/mL.
Regarding `CC(=O)OC(C)C(=O)OC[C@H]1O[C@@H](n2cc(/C=C/Br)c(=O)[nH]c2=O)C[C@@H]1O` (stereo partly drawn) [Example 10, E-5-(2-Bromovinyl)-5'-(2-acetoxypropionyl)-2'-deoxyuridine], the EC50 is 0.18 µg/mL in data set [1] (setting [3]) and 0.4 µM in data set [1] (setting [4]). Also, the MCC at 96 h in data set [2] is more than 100 µg/mL.
In the case of `CC(C)(C)[Si](C)(C)O[C@@H](Cc1ccccc1)C(=O)OC[C@H]1O[C@@H](n2cc(/C=C/Br)c(=O)[nH]c2=O)C[C@@H]1OC(=O)[C@H](Cc1ccccc1)O[Si](C)(C)C(C)(C)C` [Example 18, E-5-(2-Bromovinyl)-3',5'-bis(L-2-t-butyldimethylsilyloxy-3-penylpropionyl)-2'-deoxyuridine], the EC50 in data set [1] (setting [5]) was more than 100 µg/mL. Moreover, the MCC at 96 h in data set [2] is more than 100 µg/mL.
As for `O=C(OC[C@H]1O[C@@H](n2cc(/C=C/Br)c(=O)[nH]c2=O)C[C@@H]1OC(=O)[C@@H](O)Cc1ccccc1)[C@@H](O)Cc1ccccc1` [Example 19, E-5-(2-bromovinyl)-3', 5' -bis(L-2-hydroxy-3-phenylpropionyl)-2'-deoxyuridine], the EC50 in data set [1] (setting [3]) is 0.43 µg/mL; in data set [1] (setting [4]) it was 0.68 µM. Also, in data set [2], the MCC at 96 h was more than 100 µg/mL.
Turning to `O=C(O[C@H]1C[C@H](n2cc(/C=C/Br)c(=O)[nH]c2=O)O[C@@H]1CO)C(Cl)c1ccccc1` (stereo partly drawn) [Example 20, E-5-(2-Bromovinyl)-3'-(2-chlorophenylacetyl)-2'-deoxyuridine], the EC50 in data set [1] (setting [3]) worked out at 0.18 µg/mL; in data set [1] (setting [4]), 0.37 µM. In addition, the MCC at 96 h in data set [2] is more than 100 µg/mL.
The matching figures for `O=C(OC[C@H]1O[C@@H](n2cc(/C=C/Br)c(=O)[nH]c2=O)C[C@@H]1O)C(Cl)c1ccccc1` (stereo partly drawn) [Example 21]: 0.07 µg/mL, 0.14 µM and more than 100 µg/mL.
As to `O=C(OC[C@H]1O[C@@H](n2cc(/C=C/Br)c(=O)[nH]c2=O)C[C@@H]1OC(=O)C(Cl)c1ccccc1)C(Cl)c1ccccc1` (stereo partly drawn) [Example 22], the EC50 in data set [1] (setting [3]) was 0.34 µg/mL; in data set [1] (setting [4]), 0.53 µM. In addition, the MCC at 96 h in data set [2] is more than 100 µg/mL.
For `O=C(OC[C@H]1O[C@@H](n2cc(/C=C/Br)c(=O)[nH]c2=O)C[C@@H]1O)[C@@H](O)c1ccccc1` [Example 23, 5-(E-2-Bromovinyl)-2'-deoxy-5'-O-[(2S)-hydroxyphenylacetyl]uridine], in that order: 0.16 µg/mL, 0.34 µM and more than 100 µg/mL.
For the compound `O=C(OC[C@H]1O[C@@H](n2cc(/C=C/Br)c(=O)[nH]c2=O)C[C@@H]1OC(=O)[C@@H](O)c1ccccc1)[C@@H](O)c1ccccc1` [Example 24, 5-(E-2-Bromovinyl)-2'-deoxy-3', 5'-di-O-[(2S)-hydroxyphenylacetyl]uridine], the EC50 in data set [1] (setting [3]) was found to be 0.45 µg/mL; in data set [1] (setting [4]), 0.75 µM. For the same compound, the MCC at 96 h in data set [2] is more than 100 µg/mL.
The matching figures for `CC(C)C[C@H](O)C(=O)OC[C@H]1O[C@@H](n2cc(/C=C/Br)c(=O)[nH]c2=O)C[C@@H]1O` [Example 25, 5-(E-2-Bromovinyl)-2'-deoxy-5'-0-(L-2-hydroxy-4-methyl-pentanoyl)uridine]: 0.15 µg/mL, 0.34 µM and more than 100 µg/mL.
Turning to `CC(C)C[C@H](O)C(=O)OC[C@H]1O[C@@H](n2cc(/C=C/Br)c(=O)[nH]c2=O)C[C@@H]1OC(=O)[C@@H](O)CC(C)C` [Example 26, 5-(E-2-Bromovinyl)-2'-deoxy-3',5-di-O-(L-2-hydroxy-4-methylpentanoyl)uridine], the EC50 was 0.16 µg/mL in data set [1] (setting [3]) and 0.29 µM in data set [1] (setting [4]). In data set [2], the MCC at 96 h is more than 100 µg/mL.
Consider `COCC(=O)OC[C@H]1O[C@@H](n2cc(/C=C/Br)c(=O)[nH]c2=O)C[C@@H]1O` [Example 27, 5-(E-2-Bromovinyl)-2'-deoxy-5'-O-(methoxyacetyl)uridine], for which the EC50 in data set [1] (setting [3]) turned out to be 0.12 µg/mL; in data set [1] (setting [4]), 0.3 µM. Besides, the MCC at 96 h in data set [2] was more than 100 µg/mL.
On to `COCC(=O)OC[C@H]1O[C@@H](n2cc(/C=C/Br)c(=O)[nH]c2=O)C[C@@H]1OC(=O)COC` [Example 28, 5-(E-2-Bromovinyl)-2'-deoxy-3',5'-di-O-(methoxyacetyl)-uridine], for which the EC50 in data set [1] (setting [3]) was found to be 0.17 µg/mL; in data set [1] (setting [4]) it was 0.36 µM. In addition, the MCC at 96 h in data set [2] is more than 100 µg/mL.
As for `O=C(OC[C@H]1O[C@@H](n2cc(/C=C/Br)c(=O)[nH]c2=O)C[C@@H]1O)[C@H](O)c1ccccc1` [Example 29], the EC50 worked out at 0.22 µg/mL in data set [1] (setting [3]) and 0.47 µM in data set [1] (setting [4]). For the same compound, in data set [2], the MCC at 96 h is more than 100 µg/mL.
The matching figures for `O=C(OC[C@H]1O[C@@H](n2cc(/C=C/Br)c(=O)[nH]c2=O)C[C@@H]1OC(=O)[C@H](O)c1ccccc1)[C@H](O)c1ccccc1` [Example 30]: 0.66 µg/mL, 1.1 µM and more than 100 µg/mL.
Take `CC(C)C[C@H](O[Si](C)(C)C(C)(C)C)C(=O)OC[C@H]1O[C@@H](n2cc(/C=C/Br)c(=O)[nH]c2=O)C[C@@H]1O` [Example 31, 5-(E-2-Bromovinyl)-5'-O-(L-2-t-butyldimethylsilyloxy-4-methylpentanoyl)-2'-deoxyurudine]: in data set [1] (setting [5]), the EC50 is 0.53 µg/mL and 940 nM. Further, the MCC at 96 h in data set [2] was more than 100 µg/mL.
As for `CC(C)C[C@H](O[Si](C)(C)C(C)(C)C)C(=O)OC[C@H]1O[C@@H](n2cc(/C=C/Br)c(=O)[nH]c2=O)C[C@@H]1OC(=O)[C@H](CC(C)C)O[Si](C)(C)C(C)(C)C` [Example 32, 5-(E-2-Bromovilnyl)-3' ,5'-di-O-(L-2-t-butyldimethylsilyloxy-4-methylpentanoyl)-2'-deoxyuridirie], the EC50 in data set [1] (setting [5]) was 4.9 µg/mL and 6.2 µM. Also, the MCC at 96 h in data set [2] was more than 100 µg/mL.
For `CCC(Br)C(=O)OC[C@H]1O[C@@H](n2cc(/C=C/Br)c(=O)[nH]c2=O)C[C@@H]1O` (stereo partly drawn) [Example 33, 5-(E-2-Bromovin^yl)-5'-0-(2-bromobutyryl)-2'-deoxyuridine], the results for the EC50 in data set [1] (setting [3]) and in data set [1] (setting [4]) were 0.16 µg/mL and 0.37 µM, respectively. In addition, the MCC at 96 h in data set [2] was more than 100 µg/mL.
In the case of `CCC(Br)C(=O)OC[C@H]1O[C@@H](n2cc(/C=C/Br)c(=O)[nH]c2=O)C[C@@H]1OC(=O)C(Br)CC` (stereo partly drawn) [Example 34, 5-(E-2-Bromovinyl)-3'-5'-di-O-(2-bromobutyryl) -2'-deoxyuridine], the EC50 in data set [1] (setting [3]) came out at 0.2 µg/mL; in data set [1] (setting [4]), 0.32 µM. For the same compound, the MCC at 96 h in data set [2] is 100 µg/mL.
Take `O=C(COc1ccccc1)OC[C@H]1O[C@@H](n2cc(/C=C/Br)c(=O)[nH]c2=O)C[C@@H]1O` [Example 35, 5-(E-2-Bromovinyl)-2'-deoxy-5'-O-(phenoxyacetyl)uridine]: the EC50 turned out to be 0.18 µg/mL in data set [1] (setting [3]) and 0.38 µM in data set [1] (setting [4]). In data set [2], the MCC at 96 h was more than 100 µg/mL.
